Data published in patent US20260159521A1, “RET-LDD PROTEIN INHIBITORS” (Bristol-Myers Squibb Company, priority 2022, published 2026).

Target: RET kinase (Homo sapiens, UniProt P07949)
Experiment: time resolved FRET-based competition binding assay (RET HTRF)

RET kinase, sequence (P07949 29-1114): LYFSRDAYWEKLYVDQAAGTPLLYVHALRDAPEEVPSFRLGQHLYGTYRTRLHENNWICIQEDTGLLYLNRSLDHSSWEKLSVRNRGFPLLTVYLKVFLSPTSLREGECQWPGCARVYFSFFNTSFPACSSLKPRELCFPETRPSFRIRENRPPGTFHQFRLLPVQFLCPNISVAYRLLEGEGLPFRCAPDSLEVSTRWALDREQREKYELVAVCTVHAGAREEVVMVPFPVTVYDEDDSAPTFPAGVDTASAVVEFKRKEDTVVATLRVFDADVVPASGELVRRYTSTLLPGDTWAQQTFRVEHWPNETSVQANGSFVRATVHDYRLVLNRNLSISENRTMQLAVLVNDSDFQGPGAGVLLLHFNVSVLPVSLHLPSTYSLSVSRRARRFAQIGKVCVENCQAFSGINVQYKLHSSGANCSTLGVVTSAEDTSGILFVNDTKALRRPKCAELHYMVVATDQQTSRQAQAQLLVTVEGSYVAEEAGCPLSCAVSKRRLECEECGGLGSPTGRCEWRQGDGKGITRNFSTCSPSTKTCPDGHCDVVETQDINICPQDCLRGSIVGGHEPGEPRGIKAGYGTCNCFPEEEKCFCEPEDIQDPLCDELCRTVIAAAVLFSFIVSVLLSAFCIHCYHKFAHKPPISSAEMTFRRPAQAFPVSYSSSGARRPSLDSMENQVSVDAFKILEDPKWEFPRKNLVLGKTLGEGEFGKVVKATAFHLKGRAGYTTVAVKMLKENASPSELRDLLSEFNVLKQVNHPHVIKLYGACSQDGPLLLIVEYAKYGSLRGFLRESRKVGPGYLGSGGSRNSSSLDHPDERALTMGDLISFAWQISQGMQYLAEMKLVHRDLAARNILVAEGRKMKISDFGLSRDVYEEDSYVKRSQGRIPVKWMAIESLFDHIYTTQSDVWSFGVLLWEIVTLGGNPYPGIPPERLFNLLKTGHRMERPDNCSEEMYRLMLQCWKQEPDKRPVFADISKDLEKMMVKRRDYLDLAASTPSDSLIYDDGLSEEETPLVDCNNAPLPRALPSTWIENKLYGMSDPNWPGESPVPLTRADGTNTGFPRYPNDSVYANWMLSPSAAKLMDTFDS

IC50: 37 nM
SMILES: COCc1ccc(NC(=O)c2c(-c3ccc(C=O)cc3)c(C(C)C)n3ncnc(N)c23)cc1 [Example 10, 4-amino-6-(4-formylphenyl)-7-isopropyl-N-(4-(methoxymethyl)phenyl)pyrrolo[2,1-f][1,2,4]triazine-5-carboxamide]
